# US20250346931A1, “METHODS FOR PRODUCING HALOGENATED COMPOUNDS” (BIGELOW LABORATORY FOR OCEAN SCIENCES, priority 2022, published 2025)
# Read-outs that look alike come from different tables or passages of the source.
# B1: ciVCPO: vanadium chloroperoxidase from Curvularia inaequalis produced in Pichia pastoris (protein, UniProt P49053 1-609, looked up)
# Vanadium chloroperoxidase: MGSVTPIPLPKIDEPEEYNTNYILFWNHVGLELNRVTHTVGGPLTGPPLSARALGMLHLAIHDAYFSICPPTDFTTFLSPDTENAAYRLPSPNGANDARQAVAGAALKMLSSLYMKPVEQPNPNPGANISDNAYAQLGLVLDRSVLEAPGGVDRESASFMFGEDVADVFFALLNDPRGASQEGYHPTPGRYKFDDEPTHPVVLIPVDPNNPNGPKMPFRQYHAPFYGKTTKRFATQSEHFLADPPGLRSNADETAEYDDAVRVAIAMGGAQALNSTKRSPWQTAQGLYWAYDGSNLIGTPPRFYNQIVRRIAVTYKKEEDLANSEVNNADFARLFALVDVACTDAGIFSWKEKWEFEFWRPLSGVRDDGRPDHGDPFWLTLGAPATNTNDIPFKPPFPAYPSGHATFGGAVFQMVRRYYNGRVGTWKDDEPDNIAIDMMISEELNGVNRDLRQPYDPTAPIEDQPGIVRTRIVRHFDSAWELMFENAISRIFLGVHWRFDAAAARDILIPTTTKDVYAVDNNGATVFQNVEDIRYTTRGTREDPEGLFPIGGVPLGIEIADEIFNNGLKPTPPEIQPMPQETPVQKPVGQQPVKGMWEEEQAPVVKEAP
# Legend:
# [1] = test system: rumen-derived microbial communities; test: Inhibition of methane production in rumen-derived microbial culture; type: cell-based, dairy cattle; settings: for IC50: Bos taurus, read-out: concentration giving 50% suppression of methane production
# Experimental: FIG. 5 illustrates the production and testing process of small organic halogenated compounds for inhibition of methanogenesis. In this example, the small organic halogenated compounds produced by VBPO are incubated in a microbial culture system derived from rumen fluid obtained from dairy cattle, to determine their relative abilities at inhibiting methane production. Briefly, 1,1-dibromoacetone, co-product bromoform and derivative dibromomethane, were separately added to the culture systems. The rate of methane production was monitored in each reaction (FIGS. 6A-6C).
# [2] = ciVCPO reaction velocity with PAA or H2O2 as peroxide source, Michaelis-Menten fit; type: biochemical
# Source text: This Example describes a method for utilizing peracetic acid as a substrate for production of small, halogenated organic compounds in lieu of hydrogen peroxide using ciVCPO. PAAM is a readily available source of peracetic acid, consisting of 32% w/v peracetic acid and 6% w/v hydrogen peroxide. As peracetic acid is not an efficient two electron reductant, and unlike hydrogen peroxide, cannot produce oxygen in the presence of hypochlorous acid and catalytic quantities of chloride ions, hydrogen peroxide must be removed to avoid oxygen production employing the enzyme catalase, derived from bovine liver.
# The reaction velocity is fitted according to Michaelis-Menten kinetics to give v=f([PAA] or [H2O2]).
# [3] = rumen-derived microbial communities
molecule,measurement,setting,value
"BrCBr [dibromomethane, reference compound]",IC50,[1]; [3],150 nM
"CC(=O)C(Br)Br [1,1-dibromoacetone]",IC50,[1],125000 nM
same,relative effectiveness for inhibiting methane production among compounds screened,[1]; compared with bromoform and dibromomethane,least effective
"BrC(Br)Br [bromoform, reference compound]",IC50,[1]; [3],200 nM
B1,"Vmax, PAA relative to Vmax, H2O2",[2]; FIG. 13 legend,approximately twice
same,vmax and Km with PAA as substrate compared with hydrogen peroxide,[2]; constant NaCl 150 mM,higher vmax and Km than hydrogen peroxide
